Some test systems named below: RXF 393 renal; NCI-H23 lung; HOP-92 NSCLC; SNB-75 CNS; OVCAR-4 ovarian; EKVX NSCLC; OVCAR-5 ovarian; UACC-62 melanoma; NCI/ADR-RES ovarian; RPMI-8226 leukemia.
What all share (experiment): DTP human tumour cell line panel, 48 h

Structures are written as SMILES.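 Results reflect a 48-hour exposure of cells in 96-well plates to compound at five concentrations. TGI marks complete inhibition of growth.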

In general, TGI refers to the concentration giving total growth inhibition. Higher therefore signals lower sensitivity of the cells. For `CCNCC(=O)Nc1ccc2c(c1)C(=O)c1ccc(NC(=O)CNCC)cc1C2=O`, the TGI was 13.3 µM in the experiment with RXF 393 renal; 14.8 µM in the experiment on NCI-H23 lung; 12.5 µM in the experiment on HOP-92 NSCLC; 7.44 µM with SNB-75 CNS; 2.24 µM with OVCAR-4 ovarian; 20.5 µM with EKVX NSCLC. The TGI was 10.7 µM in the experiment with OVCAR-5 ovarian, 17.8 µM with UACC-62 melanoma and 28.3 µM in the experiment with NCI/ADR-RES ovarian.

Regarding `C=CCCn1nc(-c2ccccc2)oc1=O`, the TGI with RXF 393 renal, with NCI-H23 lung, with HOP-92 NSCLC, in the experiment with SNB-75 CNS, with OVCAR-4 ovarian and in the experiment on EKVX NSCLC was more than 100 µM each time. Further, the TGI in the experiment with OVCAR-5 ovarian and in the experiment on UACC-62 melanoma was more than 100 µM in each case.

As for `CN(C)CC1(C)CC/C(=C\c2ccc(Cl)cc2)C1=O` (stereo not given), the TGI is 82.1 µM with RXF 393 renal; more than 100 µM in the experiment with NCI-H23 lung; more than 100 µM in the experiment with HOP-92 NSCLC; more than 100 µM with SNB-75 CNS; more than 100 µM with OVCAR-4 ovarian; 43.4 µM with RPMI-8226 leukemia. The TGI with OVCAR-5 ovarian is more than 100 µM; in the experiment with UACC-62 melanoma, 64.9 µM.

`COc1cccc(/C=C2\CCC(CN(C)C)C2=O)c1` (stereo not given): the TGI turned out to be 12.3 µM in the experiment on RXF 393 renal; 27.3 µM in the experiment on NCI-H23 lung; 33.9 µM in the experiment with HOP-92 NSCLC; 38.2 µM in the experiment on SNB-75 CNS; 22.2 µM in the experiment with OVCAR-4 ovarian; 42.1 µM in the experiment on EKVX NSCLC. Further, the TGI came out at 29.6 µM in the experiment on OVCAR-5 ovarian, 20.9 µM with UACC-62 melanoma and 6.56 µM with NCI/ADR-RES ovarian.

As for `C[C@@H]1CC[C@@]2(C)OC(c3ccccc3)[C@H](CO)N2C1=O` (stereo not given in full), the TGI with RXF 393 renal, in the experiment on NCI-H23 lung, in the experiment with HOP-92 NSCLC, in the experiment with SNB-75 CNS, with OVCAR-4 ovarian and in the experiment with EKVX NSCLC was more than 100 µM each time. Besides, the TGI in the experiment on RPMI-8226 leukemia, in the experiment with OVCAR-5 ovarian and in the experiment on UACC-62 melanoma was more than 100 µM throughout.

Turning to `C=CC12CCCCC1CC(C(=O)OC)=C(O)C2` (stereo not given), the TGI with RXF 393 renal, in the experiment on NCI-H23 lung, with HOP-92 NSCLC, with SNB-75 CNS, in the experiment on OVCAR-4 ovarian and with EKVX NSCLC was more than 100 µM throughout. Moreover, the TGI in the experiment on RPMI-8226 leukemia, in the experiment on OVCAR-5 ovarian and in the experiment on UACC-62 melanoma was more than 100 µM each time.

Turning to `CC1OC(n2cc(F)c(=O)[nH]c2=O)CCC1=O` (stereo not given), the TGI in the experiment on RXF 393 renal, with HOP-92 NSCLC, with SNB-75 CNS, with OVCAR-4 ovarian, in the experiment on RPMI-8226 leukemia and in the experiment on OVCAR-5 ovarian was more than 100 µM throughout. This compound gave a TGI in the experiment with UACC-62 melanoma of more than 100 µM.

For `O/N=C1/CCCC/C1=C\c1ccc(Cl)c(Cl)c1`, the TGI in the experiment on NCI-H23 lung is more than 100 µM; in the experiment with SNB-75 CNS, 60.1 µM; in the experiment with OVCAR-4 ovarian, 59.3 µM; with EKVX NSCLC, more than 100 µM; with UACC-62 melanoma, more than 100 µM.

As to `CC(=O)N1c2ccccc2N(C(C)=O)C1c1ccc(C2N(C(C)=O)c3ccccc3N2C(C)=O)[nH]1`, the TGI in the experiment with RXF 393 renal, in the experiment with NCI-H23 lung, in the experiment on HOP-92 NSCLC, with SNB-75 CNS, in the experiment on OVCAR-4 ovarian and in the experiment with EKVX NSCLC was more than 100 µM in each case. In addition, the concentration for total growth inhibition (TGI) with RPMI-8226 leukemia, with OVCAR-5 ovarian and in the experiment on UACC-62 melanoma was more than 100 µM each time.

Take `C=C(C)CC(C(=O)O)c1ccc(C)cc1` (stereo not given): the TGI in the experiment with RXF 393 renal, in the experiment on NCI-H23 lung, in the experiment on HOP-92 NSCLC, with SNB-75 CNS, with OVCAR-4 ovarian and in the experiment on EKVX NSCLC was more than 100 µM each time. Further, the TGI with RPMI-8226 leukemia, in the experiment on OVCAR-5 ovarian and in the experiment with UACC-62 melanoma was more than 100 µM in each case.

`O=CCCn1[nH]c(=O)ccc1=O`: the TGI in the experiment on RXF 393 renal, in the experiment with NCI-H23 lung, in the experiment on HOP-92 NSCLC, in the experiment with SNB-75 CNS, in the experiment on OVCAR-4 ovarian and with EKVX NSCLC was more than 100 µM throughout. Further, the TGI in the experiment with RPMI-8226 leukemia, with OVCAR-5 ovarian and in the experiment on UACC-62 melanoma was more than 100 µM throughout.

On to `NC1=NN(c2ccccc2)C(=O)C1C(=O)C(=O)Nc1ccccc1` (stereo not given), for which the TGI in the experiment on NCI-H23 lung, in the experiment with HOP-92 NSCLC, in the experiment with OVCAR-4 ovarian, with EKVX NSCLC, in the experiment with RPMI-8226 leukemia and in the experiment on OVCAR-5 ovarian was more than 100 µM each time. This compound also came in with a TGI with UACC-62 melanoma of more than 100 µM.

As to `COc1ccc(/C=C/c2onc3c(=O)n(C)nc(-c4ccccc4)c23)cc1`, the concentration for total growth inhibition (TGI) in the experiment with RXF 393 renal is more than 100 µM; with NCI-H23 lung, more than 100 µM; with HOP-92 NSCLC it was 80.5 µM; in the experiment with EKVX NSCLC it was more than 100 µM; in the experiment with RPMI-8226 leukemia, more than 100 µM; with UACC-62 melanoma, more than 100 µM.

For the compound `O=CN/C=C/c1ccccc1`, the TGI in the experiment on RXF 393 renal, with NCI-H23 lung, in the experiment with HOP-92 NSCLC, in the experiment on SNB-75 CNS, with OVCAR-4 ovarian and in the experiment on EKVX NSCLC was more than 100 µM in each case. Besides, the TGI in the experiment on RPMI-8226 leukemia, in the experiment with OVCAR-5 ovarian and with UACC-62 melanoma was more than 100 µM in each case.

Take `C[C@]12Cc3conc3C(O)=C1CC[C@@H]1C2CC[C@@]2(C)C1CC[C@@H]2O` (stereo not given in full): the TGI in the experiment on RXF 393 renal is 44.9 µM; in the experiment with NCI-H23 lung, 64.3 µM; in the experiment with HOP-92 NSCLC it was 63.6 µM; with SNB-75 CNS it was 31.1 µM; with OVCAR-4 ovarian, more than 100 µM; in the experiment on EKVX NSCLC it was 64.7 µM. Moreover, the TGI was 20.4 µM in the experiment with RPMI-8226 leukemia, more than 100 µM in the experiment on OVCAR-5 ovarian and 54.6 µM with UACC-62 melanoma.

Consider `CCCCCCCCCCCCCCCCc1c(C(=O)OC)nc(NC#N)[nH]c1=O`, for which the TGI with RXF 393 renal, with NCI-H23 lung, with HOP-92 NSCLC, in the experiment with SNB-75 CNS, in the experiment on OVCAR-4 ovarian and in the experiment on EKVX NSCLC was more than 25 µM each time. For the same compound, the total growth inhibition concentration (TGI) in the experiment with RPMI-8226 leukemia and with OVCAR-5 ovarian was more than 25 µM throughout.

The values above are taken from PubChem BioAssay (NCI).
